Measurements as given in PMC4007584 (Journal of biomolecular screening, 2013).
Counter-ions that a name gives are not always drawn.

What was measured:
[1] = target: catalytic domain of PDE10A2 (Homo sapiens, UniProt Q9Y233); assay: PDE10A calorimetric activity assay; format: biochemical
PDE10A = settings: literature; cited from earlier work
R6/2 mice = settings: IP beginning at 4 weeks of age; cited from earlier work

Chain of catalytic domain of PDE10A2 (Q9Y233 715-1055 limits assumed): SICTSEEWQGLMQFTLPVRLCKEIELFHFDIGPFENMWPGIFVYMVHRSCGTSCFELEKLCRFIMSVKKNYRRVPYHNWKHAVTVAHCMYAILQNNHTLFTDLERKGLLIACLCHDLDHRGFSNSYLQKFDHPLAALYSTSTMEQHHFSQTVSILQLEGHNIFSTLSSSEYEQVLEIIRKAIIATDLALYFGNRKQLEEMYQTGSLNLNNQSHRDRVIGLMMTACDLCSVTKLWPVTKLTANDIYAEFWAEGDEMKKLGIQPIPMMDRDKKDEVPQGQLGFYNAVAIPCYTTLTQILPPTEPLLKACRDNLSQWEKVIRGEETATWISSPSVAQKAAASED

SMILES | inhibition mechanism, PDE10A [1] | IC50 (PDE10A) | Ki [1] | Ligand Efficiency PDE10A ([1]; Table 1, from enthalpy array KI) | reduction of the loss of striatal size (R6/2 mice)
COc1ccc(Cc2nccc3cc(OC)c(OC)cc23)cc1OC [Papaverine, papaverine hydrochloride] | competitive inhibition | 0.095 µM |  |  | 
CC(=O)CCCCn1c(=O)c2c(ncn2C)n(C)c1=O [Pentoxifylline, pentoxifylline] | competitive inhibition |  | 200 ± 60 µM |  | 
CC(C)Cn1c(=O)n(C)c(=O)c2[nH]cnc21 [IBMX, 3-isobutyl-1-methylxanthine] | competitive inhibition | 11 µM | 17 ± 6.6 µM | 0.41 kcal mol^−1 HA^−1 | 
FC(F)(F)Cn1cc(-c2ccncc2)c(-c2ccc(OCc3ccc4ccccc4n3)cc2)n1 [TP-10] |  |  |  |  | 50%
